Test results as given in ChEMBL document CHEMBL1130949, “Construction of a family of biphenyl combinatorial libraries: structure-activity studies utilizing libraries of mixtures” (Bioorg Med Chem Lett, 1998).

Test: Binding affinity against vitronectin receptor was determined

SMILES	IC50 [µM]
CC(=O)N[C@@H](CC(=O)O)C(=O)Nc1ccc(-c2ccccc2C(N)=O)cc1	96
CC(=O)N[C@@H](CC(=O)O)C(=O)Nc1ccc(-c2ccc(C(=O)O)cc2)cc1	96
COCC(=O)N[C@@H](CC(=O)O)C(=O)Nc1ccc(-c2ccccc2C(=O)O)cc1	> 500
CC(=O)N[C@H](CC(=O)O)C(=O)Nc1ccc(-c2ccccc2C(=O)O)cc1	> 500
CC(C)C(=O)N[C@@H](CC(=O)O)C(=O)Nc1ccc(-c2ccccc2C(=O)O)cc1	> 500

Molecules with a lower IC50, results first:

IC50 [µM]	SMILES
34	CC(=O)N[C@@H](CC(=O)O)C(=O)Nc1ccc(-c2ccccc2C(=O)N[C@@H](CCCN=C(N)N)C(=O)O)cc1
52	CC(=O)N[C@@H](CC(=O)O)C(=O)Nc1ccc(-c2ccccc2C(=O)O)cc1
46	CC(=O)N[C@@H](CC(=O)O)C(=O)Nc1cccc(-c2ccccc2C(=O)O)c1
31	CC(=O)N[C@@H](CC(=O)O)C(=O)Nc1ccc(-c2cccc(C(=O)O)c2)cc1
